According to PMC11742250, “Study on the absorption characteristics of euscaphic acid and tiliroside in fruits of Rosa laxa Retz” (PeerJ, 2025):

Key:
Type in all cases: in vitro ADME, human
[1] = tested on: P-gp; assay: in vitro; settings: human
Experimental: (§1) A precise amount of FRLE reserve solution is diluted to concentrations of 50, 100, and 150 μg/mL, representing the low, medium, and high concentrations of FRLE. Additionally, solutions are prepared containing 0.100 μmoL/mL Verapamil (Ver), 0.099 μmoL/mL Cyclosporine A (CsA), and 0.025 μmoL/mL EGTA at low, medium, and high concentrations for bidirectional transport.
(§2) Caco-2 cells are seeded at a density of 2.5 × 10^5 cells/mL, with 0.5 mL inoculated into each well of a Transwell® 12-well plate. After continuous culturing for 18 days, the cell model is established. Bidirectional transport experiments include AP→BL ([…], absorption transport) and BL→AP ([…], secretion transport).
(§3) Taking absorption transport as an example: 0.5 mL of drug-containing Hank’s Balanced Salt Solution (HBSS) solution is added to the apical (AP) side (supply side), while 1.5 mL of blank solution is added to the basolateral (BL) side (receiving side). At time points 15, 30, 60, 90, 120, 150, and 180 min, 200 µL is drawn from the BL side and simultaneously supplemented with 200 µL of HBSS buffer. The samples are then evaporated in a water bath, re-dissolved in methanol, and centrifuged at 12,000 rpm for 10 min. The supernatant is taken and assayed under the conditions described in “Establishment of the determination method for euscaphic acid and tiliroside”. The effects of different times, concentrations, inhibitors, chelating agents, and pH values on the absorption characteristics of euscaphic acid and tiliroside in FRLE are investigated. The secretion transport procedure is identical to the absorption transport ([Artursson & Karlsson, 1991]).
(§4) The side with the added blank solution is considered the receiving side, and the amount of drug in the receiving side is regarded as its absorption amount (Qr). In the A→B transport test, the amount of drug absorbed by the B-side chamber at any time point is denoted as (QrBi). In the B→A transport test, the amount of drug absorbed by the A-side chamber at any time point is (QrAi). The specific calculations are provided in the following formulas:
(§5) A-B transport: QrBi = 0.2 × (Cr1 + Cr2 + Λ + Cr(i-1)) + 1.5 × Cri
(§6) B-A transport: Qrdi = 0.2 × (Cr1 + Cr2 + Λ + Cr(i-1)) + 0.5 × Cdi
(§7) In the formula, 1.5 represents the volume of the test solution added to the B-side chamber (mL), 0.5 represents the volume of the test solution added to the A-side chamber (mL), and 0.2 is the volume of each sample taken (mL). Cri is the actual concentration in the receiving chamber at the i-th time point (μg/mL). The apparent permeability coefficient Papp (cm/s) is calculated using the following formula ([Lu et al., 2020]):
(§8) Papp=dQ/dt×1/A×C0 dQ/dt represents the amount of drug transported per unit of time (μg/s); A is the surface area of the 12-well Transwell® membrane (1.12 cm^2), and C0 is the initial concentration of the drug in the donor side ([…]) ([Qu et al., 2021]).
(§9) Exhaust ratio (RB-A/A-B)) is calculated using the following formula: RB−A/A−B=Papp(B−A)/Papp(A−B)

[2] = in vitro; settings: human
Experimental: as §1, §2, §3, §4, §5, §6, §7, §8, §9

[3] = tested on: Caco-2 cells; assay: in vitro
Experimental: as §1, §2, §3, §4, §5, §6, §7, §8, §9

[4] = Caco-2, Papp × 10^−4 (cm/s) (A→B)
[5] = Caco-2, Papp × 10^−4 (cm/s) (B→A)
[6] = Caco-2, pH 5, Papp × 10^−4 (cm/s) (A→B)
[7] = Caco-2, pH 5, Papp × 10^−4 (cm/s) (B→A)
[8] = Caco-2, pH 6, Papp × 10^−4 (cm/s) (A→B)
[9] = Caco-2, pH 6, Papp × 10^−4 (cm/s) (B→A)
[10] = Caco-2, pH 8, Papp × 10^−4 (cm/s) (A→B)
[11] = Caco-2, pH 8, Papp × 10^−4 (cm/s) (B→A)
[12] = Caco-2, pH 9, Papp × 10^−4 (cm/s) (A→B)
[13] = Caco-2, pH 9, Papp × 10^−4 (cm/s) (B→A)

Molecule `O=C(/C=C/c1ccc(O)cc1)OC[C@H]1O[C@@H](Oc2c(-c3ccc(O)cc3)oc3cc(O)cc(O)c3c2=O)[C@H](O)[C@@H](O)[C@@H]1O` [Tiliroside] has a Papp A→B at 180 min, 50 μg/mL [1, 4] of 142 ± 2 ×10⁻⁶ cm/s, a Papp A→B at 180 min, 100 μg/mL [1, 4] of 180 ± 5 ×10⁻⁶ cm/s and a Papp A→B at 180 min, 150 μg/mL [1, 4] of 261 ± 6 ×10⁻⁶ cm/s. For the same molecule, the Papp B→A at 180 min, 50 μg/mL [1, 5] was 156 ± 3 ×10⁻⁶ cm/s, the Papp B→A at 180 min, 100 μg/mL [1, 5] was 226 ± 9 ×10⁻⁶ cm/s and the Papp B→A at 180 min, 150 μg/mL [1, 5] was 276 ± 1 ×10⁻⁶ cm/s. For the same molecule, the efflux ratio at 180 min, 50 μg/mL ([1]; Caco-2, RB→A/A→B) was 1.09 ± 0.03, the efflux ratio at 180 min, 100 μg/mL ([1]; Caco-2, RB→A/A→B) was 1.25 ± 0.06 and the efflux ratio at 180 min, 150 μg/mL ([1]; Caco-2, RB→A/A→B) was 0.96 ± 0.02. The Papp at 180 min ([2]; Caco-2) was 0.042 to 0.808 ×10⁻⁶ cm/s, the Papp A→B at 180 min, 50 μg/mL [2, 4] was 137 ± 2 ×10⁻⁶ cm/s and the Papp A→B at 180 min, 100 μg/mL [2, 4] was 176 ± 13 ×10⁻⁶ cm/s. The Papp A→B at 180 min, 150 μg/mL [2, 4] was 268 ± 9 ×10⁻⁶ cm/s, the Papp B→A at 180 min, 50 μg/mL [2, 5] was 129 ± 2 ×10⁻⁶ cm/s and the Papp B→A at 180 min, 100 μg/mL [2, 5] was 210 ± 4 ×10⁻⁶ cm/s. It also gave a Papp B→A at 180 min, 150 μg/mL [2, 5] of 283 ± 3 ×10⁻⁶ cm/s, an efflux ratio at 180 min, 50 μg/mL ([2]; Caco-2, RB→A/A→B) of 0.82 ± 0.04 and an efflux ratio at 180 min, 100 μg/mL ([2]; Caco-2, RB→A/A→B) of 0.75 ± 0.07. For the same molecule, the efflux ratio at 180 min ([2]; Caco-2, efflux ratio (RB→A/A→B)) was under 1.5, the Papp A→B at 180 min, 50 μg/mL [2, 6] was 380 ± 9 ×10⁻⁶ cm/s and the Papp A→B at 180 min, 100 μg/mL [2, 6] was 409 ± 7 ×10⁻⁶ cm/s. It also gave a Papp A→B at 180 min, 150 μg/mL [2, 6] of 649 ± 8 ×10⁻⁶ cm/s, a Papp B→A at 180 min, 50 μg/mL [2, 7] of 448 ± 8 ×10⁻⁶ cm/s and a Papp B→A at 180 min, 100 μg/mL [2, 7] of 536 ± 14 ×10⁻⁶ cm/s. The Papp B→A at 180 min, 150 μg/mL [2, 7] was 718 ± 24 ×10⁻⁶ cm/s, the efflux ratio at 180 min, 50 μg/mL ([2]; Caco-2, pH 5, RB→A/A→B) was 1.18 ± 0.01 and the efflux ratio at 180 min, 100 μg/mL ([2]; Caco-2, pH 5, RB→A/A→B) was 1.31 ± 0.02. For the same molecule, the efflux ratio at 180 min, 150 μg/mL ([2]; Caco-2, pH 5, RB→A/A→B) was 1.11 ± 0.05, the Papp A→B at 180 min, 50 μg/mL [2, 8] was 473 ± 24 ×10⁻⁶ cm/s and the Papp A→B at 180 min, 100 μg/mL [2, 8] was 468 ± 14 ×10⁻⁶ cm/s. For the same molecule, the Papp A→B at 180 min, 150 μg/mL [2, 8] was 618 ± 28 ×10⁻⁶ cm/s, the Papp B→A at 180 min, 50 μg/mL [2, 9] was 568 ± 24 ×10⁻⁶ cm/s and the Papp B→A at 180 min, 100 μg/mL [2, 9] was 614 ± 8 ×10⁻⁶ cm/s. It also gave a Papp B→A at 180 min, 150 μg/mL [2, 9] of 808 ± 15 ×10⁻⁶ cm/s, an efflux ratio at 180 min, 50 μg/mL ([2]; Caco-2, pH 6, RB→A/A→B) of 1.2 ± 0.11 and an efflux ratio at 180 min ([2]; Caco-2, pH 6, RB→A/A→B value) of about 1. It also gave a Papp A→B at 180 min, 50 μg/mL [2, 10] of 86 ± 12 ×10⁻⁶ cm/s, a Papp A→B at 180 min, 100 μg/mL [2, 10] of 92 ± 17 ×10⁻⁶ cm/s and a Papp A→B at 180 min, 150 μg/mL [2, 10] of 96 ± 14 ×10⁻⁶ cm/s. It also gave a Papp B→A at 180 min, 50 μg/mL [2, 11] of 83 ± 600 ×10⁻⁶ cm/s, a Papp B→A at 180 min, 100 μg/mL [2, 11] of 88 ± 11 ×10⁻⁶ cm/s and a Papp B→A at 180 min, 150 μg/mL [2, 11] of 93 ± 18 ×10⁻⁶ cm/s. It also gave an efflux ratio at 180 min, 50 μg/mL ([2]; Caco-2, pH 8, RB→A/A→B) of 1.03 ± 0.01, an efflux ratio at 180 min, 100 μg/mL ([2]; Caco-2, pH 8, RB→A/A→B) of 1.04 ± 0.03 and a Papp A→B at 180 min, 50 μg/mL [2, 12] of 45 ± 4 ×10⁻⁶ cm/s. The Papp A→B at 180 min, 100 μg/mL [2, 12] was 56 ± 24 ×10⁻⁶ cm/s, the Papp A→B at 180 min, 150 μg/mL [2, 12] was 66 ± 26 ×10⁻⁶ cm/s and the Papp B→A at 180 min, 50 μg/mL [2, 13] was 42 ± 15 ×10⁻⁶ cm/s. It also gave a Papp B→A at 180 min, 100 μg/mL [2, 13] of 54 ± 18 ×10⁻⁶ cm/s, a Papp B→A at 180 min, 150 μg/mL [2, 13] of 62 ± 21 ×10⁻⁶ cm/s and an efflux ratio at 180 min, 50 μg/mL ([2]; Caco-2, pH 9, RB→A/A→B) of 1.07 ± 0.06. The P-gp substrate status ([3]; Caco-2) was “substrates of P-gp”, the “absorption category from Papp” value ([3]; Caco-2) was “good absorption” and the transport mechanism ([3]; Caco-2) was “passive diffusion”. For the same molecule, the Papp ([3]; human, Caco-2, 180 min) was “greater than 10^−6”, the “RB→A/A→B ratios, range over all conditions” value ([3]; human, Caco-2, 180 min) was 0.75-1.31 and the RB→A/A→B ([3]; human, Caco-2, 180 min, 100 μg/mL, pH 6) was 1.31 ± 0.05. It also gave an RB→A/A→B ([3]; human, Caco-2, 180 min, 100 μg/mL, pH 9) of 1.03 ± 0.04, an RB→A/A→B ([3]; human, Caco-2, 180 min, 150 μg/mL, pH 6) of 1.21 ± 0.15 and an RB→A/A→B ([3]; human, Caco-2, 180 min, 150 μg/mL, pH 8) of 1.03 ± 0.05. It also gave an RB→A/A→B ([3]; human, Caco-2, 180 min, 150 μg/mL, pH 9) of 1.06 ± 0.05.
